From patent US10081641B2, “Pesticidally active heterocyclic derivatives with sulphur containing substituents” (Syngenta Participations AG, priority 2014, dated 2018)
Where two headings read alike, the source gives them in different places.

Tests used:
Assay type in all cases: in vivo
[1] = tested on: Plutella xylostella (Diamond Back Moth); assay: Example B3: Plutella xylostella, artificial diet; settings: 120 h, read-out: effect in at least one of the two categories (mortality or growth inhibition)
Procedure: Example B3: Plutella xylostella (Diamond Back Moth)
(§1) 24-well microtiter plates with artificial diet were treated with aqueous test solutions prepared from 10′000 ppm DMSO stock solutions by pipetting. After drying, the plates were infested with L2 larvae (10 to 15 per well). The samples were assessed for mortality and growth inhibition in comparison to untreated samples 5 days after infestation.

[2] = tested on: Spodoptera littoralis (Egyptian Cotton Leaf Worm); assay: Example B1: Spodoptera littoralis, sprayed cotton leaf discs; settings: foliar, 72 h, read-out: control (at least one of mortality, anti-feedant effect, growth inhibition)
Procedure: Example B1: Spodoptera littoralis (Egyptian Cotton Leaf Worm)
Cotton leaf discs were placed on agar in 24-well microtiter plates and sprayed with aqueous test solutions prepared from 10′000 ppm DMSO stock solutions. After drying, the leaf discs were infested with five L1 larvae. The samples were assessed for mortality, anti-feedant effect, and growth inhibition in comparison to untreated samples 3 days after infestation. Control of Spodoptera littoralis by a test sample is when at least one of mortality, anti-feedant effect, and growth inhibition is higher than the untreated sample.

[3] = tested on: Myzus persicae (Green Peach Aphid); assay: Example B5: Myzus persicae, sprayed sunflower leaf discs; settings: foliar, 144 h, application rate of 200 ppm, mixed ages, 6 days after infestation
Procedure: Example B5: Myzus persicae (Green Peach Aphid)
(§2) Sunflower leaf discs were placed on agar in a 24-well microtiter plate and sprayed with aqueous test solutions prepared from 10′000 ppm DMSO stock solutions. After drying, the leaf discs were infested with an aphid population of mixed ages. The samples were assessed for mortality 6 days after infestation.

[4] = tested on: Diabrotica Balteata (Corn Root Worm); assay: Example B4: Diabrotica balteata, sprayed maize sprouts; settings: 96 h, application rate of 200 ppm, L2 larvae, 4 days after infestation, read-out: effect in at least one of the two categories (mortality or growth inhibition)
Procedure: Example B4: Diabrotica Balteata (Corn Root Worm)
as §1, with “Maize sprouts, placed on an agar layer in 24-well” for “24-well”, “plates” for “plates with artificial diet”, “spraying.” for “pipetting.”, “(6” for “(10”, “10” for “15”, “4” for “5”

[5] = tested on: Myzus persicae (Green Peach Aphid); assay: Example B6: Myzus persicae, roots of pea seedlings in test solution; settings: 144 h, test rate of 24 ppm, pea seedling roots in test solution, 6 days
Procedure: Example B6: Myzus persicae (Green Peach Aphid)
Roots of pea seedlings infested with an aphid population of mixed ages were placed directly in the aqueous test solutions prepared from 10′000 DMSO stock solutions. The samples were assessed for mortality 6 days after placing seedlings in test solutions.

[6] = tested on: Bemisia tabaci (Cotton White Fly); assay: Example B7: Bemisia tabaci, sprayed cotton leaf discs; settings: foliar, 144 h, application rate of 200 ppm, adult white flies, 6 days after incubation
Procedure: Example B7: Bemisia tabaci (Cotton White Fly)
Cotton leaf discs were placed on agar in 24-well microtiter plates and sprayed with aqueous test solutions prepared from 10′000 ppm DMSO stock solutions. After drying the leaf discs were infested with adult white flies. The samples were checked for mortality 6 days after incubation.

[7] = tested on: Spodoptera littoralis (Egyptian Cotton Leaf Worm); assay: Example B2: Spodoptera littoralis, systemic test via lettuce roots in agar; settings: 144 h, test rate of 12.5 ppm, uptake via lettuce roots, 6 days after infestation, read-out: effect in at least one of the three categories (mortality, anti-feedancy, or growth inhibition)
Source text: Example B2: Spodoptera littoralis (Egyptian Cotton Leaf Worm)
Test compounds were applied by pipette from 10′000 ppm DMSO stock solutions into 24-well plates and mixed with agar. Lettuce seeds were placed on the agar and the multi well plate was closed by another plate which contains also agar. After 7 days the roots have absorbed the compound and the lettuce has grown into the lid plate. The lettuce leafs were now cut off into the lid plate. Spodoptera eggs were pipetted through a plastic stencil on a humid gel blotting paper and the plate closed with it. The samples were assessed for mortality, anti-feedant effect and growth inhibition in comparison to untreated samples 6 days after infestation.

[8] = tested on: Euschistus heros (Neotropical Brown Stink Bug); assay: Example B8: Euschistus heros, sprayed soybean leaf; settings: 120 h, application rate of 200 ppm, N-2 nymphs, 5 days after infestation
Procedure: Example B8: Euschistus heros (Neotropical Brown Stink Bug)
Soybean leaf on agar in 24-well microtiter plates were sprayed with aqueous test solutions prepared from 10′000 ppm DMSO stock solutions. After drying the leaf were infested with N-2 nymphs. The samples were assessed for mortality 5 days after infestation.

[9] = tested on: Tetranychus urticae (Two-Spotted Spider Mite); assay: Example B10: Tetranychus urticae, sprayed bean leaf discs; settings: foliar, 192 h
Procedure: Example B10: Tetranychus urticae (Two-Spotted Spider Mite)
Bean leaf discs on agar in 24-well microtiter plates were sprayed with aqueous test solutions prepared from 10′000 ppm DMSO stock solutions. After drying the leaf discs were infested with a mite population of mixed ages. The samples were assessed for mortality on mixed population (mobile stages) 8 days after infestation.

[10] = tested on: Frankliniella occidentalis (Western Flower Thrips); assay: Example B12: Frankliniella occidentalis, sprayed sunflower leaf discs; settings: foliar, 168 h, application rate of 200 ppm, mixed ages, 7 days after infestation
Procedure: Example B12: Frankliniella occidentalis (Western Flower Thrips)
as §2, with “in” for “in a”, “plates” for “plate”, “[…]” for “10′000 ppm”, “drying” for “drying,”, “a Frankliniella” for “an aphid”, “7” for “6”

[11] = tested on: Thrips tabaci (Onion Thrips); assay: Example B11: Thrips tabaci, sprayed sunflower leaf discs; settings: foliar, 144 h, application rate of 200 ppm, mixed ages, 6 days after infestation
Procedure: Example B11: Thrips tabaci (Onion Thrips)
as §2, with “in” for “in a”, “plates” for “plate”, “drying” for “drying,”, “a thrips” for “an aphid”

[12] = application rate of 200 ppm, artificial diet, L2 larvae, 5 days after infestation
[13] = application rate of 200 ppm, cotton leaf discs, L1 larvae, 3 days after infestation

CCS(=O)(=O)c1cc(C#C[Si](C)(C)C)cnc1-c1nc2cc(C(F)(F)F)ncc2n1C [P1, 2-[5-ethylsulfonyl-6-[3-methyl-6-(trifluoromethyl)imidazo[4,5-c]pyridin-2-yl]-3-pyridyl]ethynyl-trimethyl-silane]
≥ 80%: percent effect (mortality or growth inhibition) at 200 ppm [1] | percent control (mortality, anti-feedant effect or growth inhibition) at 200 ppm [2]

C#Cc1cnc(-c2nc3cc(C(F)(F)F)ncc3n2C)c(S(=O)(=O)CC)c1 [P2, 2-(3-ethylsulfonyl-5-ethynyl-2-pyridyl)-3-methyl-6-(trifluoromethyl)imidazo[4,5-c]pyridine]
≥ 80%: percent effect (mortality or growth inhibition) at 200 ppm [1, 12] | percent control (mortality, anti-feedant effect or growth inhibition) at 200 ppm [2, 13]

C=Cc1cnc(-c2nc3cc(C(F)(F)F)ncc3n2C)c(S(=O)(=O)CC)c1 [P3, 2-(3-ethylsulfonyl-5-vinyl-2-pyridyl)-3-methyl-6-(trifluoromethyl)imidazo[4,5-c]pyridine]
≥ 80%: percent effect (mortality or growth inhibition) at 200 ppm [1, 12] | mortality at 200 ppm [3] | percent effect (mortality or growth inhibition) at 200 ppm [4] | percent control (mortality, anti-feedant effect or growth inhibition) at 200 ppm [2, 13] | mortality at 24 ppm [5]

CCS(=O)(=O)c1cc(C#Cc2ccc(Cl)cc2)cnc1-c1nc2cc(C(F)(F)F)ncc2n1C [P4]
≥ 80%: percent effect (mortality or growth inhibition) at 200 ppm [1, 12] | mortality at 200 ppm [3] | percent effect (mortality or growth inhibition) at 200 ppm [4] | percent control (mortality, anti-feedant effect or growth inhibition) at 200 ppm [2, 13]

CCS(=O)(=O)c1cc(/C=C/C2CCCCC2)cnc1-c1nc2cc(C(F)(F)F)ncc2n1C [P5]
≥ 80%: mortality at 200 ppm [6] | percent effect (mortality or growth inhibition) at 200 ppm [1, 12] | percent effect (mortality or growth inhibition) at 200 ppm [4]

C/C=C/c1cnc(-c2nc3cc(C(F)(F)F)ncc3n2C)c(S(=O)(=O)CC)c1 [P6]
≥ 80%: percent effect (mortality or growth inhibition) at 200 ppm [1, 12] | percent control (mortality, anti-feedancy or growth inhibition) at 12.5 ppm [7] | mortality at 200 ppm [3] | percent effect (mortality or growth inhibition) at 200 ppm [4] | mortality at 200 ppm [8] | percent control (mortality, anti-feedant effect or growth inhibition) at 200 ppm [2, 13]

CCS(=O)(=O)c1cc(C2CC2)cnc1-c1nc2cc(C(F)(F)F)ncc2n1C [P7, 2-(5-cyclopropyl-3-ethylsulfonyl-2-pyridyl)-3-methyl-6-(trifluoromethyl)imidazo[4,5-c]pyridine]
≥ 80%: percent effect (mortality or growth inhibition) at 200 ppm [1, 12] | percent control (mortality, anti-feedancy or growth inhibition) at 12.5 ppm [7] | mortality at 200 ppm [3] | percent effect (mortality or growth inhibition) at 200 ppm [4] | mortality at 200 ppm [8] | percent control (mortality, anti-feedant effect or growth inhibition) at 200 ppm [2, 13] | mortality at 24 ppm [5]

CCS(=O)(=O)c1cc(C#Cc2ccc(Cl)cc2)ccc1-c1nc2cc(C(F)(F)F)ncc2n1C [P8]
≥ 80%: mortality at 200 ppm [6] | percent effect (mortality or growth inhibition) at 200 ppm [1, 12] | percent control (mortality, anti-feedancy or growth inhibition) at 12.5 ppm [7] | percent effect (mortality or growth inhibition) at 200 ppm [4] | mortality at 200 ppm [8] | percent control (mortality, anti-feedant effect or growth inhibition) at 200 ppm [2, 13]

CCS(=O)(=O)c1cc(C#CC(F)(F)F)ccc1-c1nc2cc(C(F)(F)F)ncc2n1C [P9]
≥ 80%: percent effect (mortality or growth inhibition) at 200 ppm [4] | mortality at 200 ppm [9]

CCS(=O)(=O)c1cc(/C=C/c2ccc(C(F)(F)F)cc2)ccc1-c1nc2cc(C(F)(F)F)ncc2n1C [P10]
≥ 80%: percent effect (mortality or growth inhibition) at 200 ppm [1, 12] | percent effect (mortality or growth inhibition) at 200 ppm [4] | mortality at 200 ppm [8] | percent control (mortality, anti-feedant effect or growth inhibition) at 200 ppm [2, 13]

CCS(=O)(=O)c1cc(C=C(C)C)cnc1-c1nc2cc(C(F)(F)F)ncc2n1C [P11]
≥ 80%: percent effect (mortality or growth inhibition) at 200 ppm [1, 12] | mortality at 200 ppm [3] | percent effect (mortality or growth inhibition) at 200 ppm [4] | mortality at 200 ppm [8] | percent control (mortality, anti-feedant effect or growth inhibition) at 200 ppm [2, 13]

CCS(=O)(=O)c1cc(C2=CCC(C)(C)CC2)cnc1-c1nc2cc(C(F)(F)F)ncc2n1C [P12]
≥ 80%: mortality at 200 ppm [6] | percent effect (mortality or growth inhibition) at 200 ppm [1, 12] | mortality at 200 ppm [3] | mortality at 200 ppm [8]

C=Cc1ccc(-c2nc3cc(C(F)(F)F)ncc3n2C)c(S(=O)(=O)CC)c1 [P13]
≥ 80%: percent effect (mortality or growth inhibition) at 200 ppm [1, 12] | percent control (mortality, anti-feedancy or growth inhibition) at 12.5 ppm [7] | percent effect (mortality or growth inhibition) at 200 ppm [4] | percent control (mortality, anti-feedant effect or growth inhibition) at 200 ppm [2, 13]

C=C(c1ccc(-c2nc3cc(C(F)(F)F)ncc3n2C)c(S(=O)(=O)CC)c1)C(F)(F)F [P14]
≥ 80%: percent effect (mortality or growth inhibition) at 200 ppm [1, 12] | percent effect (mortality or growth inhibition) at 200 ppm [4] | percent control (mortality, anti-feedant effect or growth inhibition) at 200 ppm [2, 13]

CCS(=O)(=O)c1cc(C2(C#N)CC2)ccc1-c1nc2cc(C(F)(F)F)ncc2n1C [P15, 1-[3-ethylsulfonyl-4-[3-methyl-6-(trifluoromethyl)imidazo[4,5-c]pyridin-2-yl]phenyl]cyclopropanecarbonitrile]
≥ 80%: mortality at 200 ppm [6] | percent effect (mortality or growth inhibition) at 200 ppm [1, 12] | percent control (mortality, anti-feedancy or growth inhibition) at 12.5 ppm [7] | mortality at 200 ppm [3] | percent effect (mortality or growth inhibition) at 200 ppm [4] | mortality at 200 ppm [10] | mortality at 200 ppm [8] | percent control (mortality, anti-feedant effect or growth inhibition) at 200 ppm [2, 13] | mortality at 200 ppm [9] | mortality at 24 ppm [5]

CCS(=O)(=O)c1cc(C2(C#N)CC2)cnc1-c1nc2cc(C(F)(F)F)ncc2n1C [P16]
≥ 80%: mortality at 200 ppm [6] | percent effect (mortality or growth inhibition) at 200 ppm [1, 12] | percent control (mortality, anti-feedancy or growth inhibition) at 12.5 ppm [7] | mortality at 200 ppm [3] | mortality at 200 ppm [11] | percent effect (mortality or growth inhibition) at 200 ppm [4] | mortality at 200 ppm [10] | mortality at 200 ppm [8] | percent control (mortality, anti-feedant effect or growth inhibition) at 200 ppm [2, 13] | mortality at 24 ppm [5]

C=C(c1cnc(-c2nc3cc(C(F)(F)F)ncc3n2C)c(S(=O)(=O)CC)c1)C(F)(F)F [P17, 2-[3-ethylsulfonyl-5-[1-(trifluoromethyl)vinyl]-2-pyridyl]-3-methyl-6-(trifluoromethyl)imidazo[4,5-c]pyridine]
≥ 80%: percent effect (mortality or growth inhibition) at 200 ppm [4]
